Results reported in PubChem BioAssay AID2305 (GlaxoSmithKline (GSK), 2010).
pIC50: −log10 of the molar value.

What follows are molecules tested on P. falciparum 3D7 growth, pLDH absorbance (assay: P. falciparum 3D7 growth inhibition, dose response, strain 3D7 (AID 2305)).
`O=C(C=Cc1ccc(F)cc1)N1CCN(S(=O)(=O)c2ccc(Cl)cc2)CC1` was tested, and the pIC50 was 6.20.
`COc1ccc(NC(=O)/C=C/c2ccc(Cl)c(C(F)(F)F)c2)cc1OCCN(C(C)C)C(C)C` showed a pIC50 of 6.20.
In the case of `O=C(/C=C/c1ccccc1O)N1CCC(CCN2CCC(c3c[nH]c4ccccc34)CC2)CC1`, the pIC50 was 5.87.
With `Cc1cccc(C(=O)Nc2ccnc(N(C)C3CCN(CC(C)C)CC3)c2)c1` the pIC50 was 6.06.
Work on `Cc1ccc2nc(-c3ccc(C=CC(=O)NC4CCN(Cc5ccccc5)CC4)cc3)[nH]c2c1` yielded a pIC50 of 6.17.
Molecule `CCCCNc1cc(C)nc(NCc2ccccc2)n1` has a pIC50 of 6.01.
With `CC(=O)c1ccc2nc[nH]c(=O)c2c1` the pIC50 was 6.14.
Molecule `Cc1[nH]nc2ccc(-c3cc(OC[C@@H](N)Cc4ccccc4)cnc3-c3ccc(OCc4cccc(F)c4)cc3)cc12` has a pIC50 of 6.14.
`CC(Cc1ccc(C2=CCNCC2)cc1)NCC(O)c1cccc(C(F)(F)F)c1` (centres undefined) was tested, and the pIC50 was 5.80.
`O=C(Nc1ccc(Cl)c(Cl)c1)C1CCC(=O)N1[C@@H](Cc1ccccc1)C(=O)NCCc1ccc(Cl)cc1` (some centres undefined) showed a pIC50 of 5.96.
In the case of `COc1ccc(-c2cccc(NC(=O)c3ccc(C#N)cc3)c2)cc1CN(C)CCN(C)C`, the pIC50 was 7.15.
`O=C(/C=C/c1ccc(Cl)c(Cl)c1)NCCCCCN1CCCN(C(=O)Nc2ccc(OC(F)F)cc2)CC1` was tested, and the pIC50 was 6.08.
`O=C(Cc1ccc(NC(=O)c2ccc(O)c(-c3ccc(Cl)c(Cl)c3)c2)cc1)NCc1cccc(C(F)(F)F)c1` was tested, and the pIC50 was 6.06.
`O=c1sn(-c2csc3ccccc23)c2ccccc12` showed a pIC50 of 6.47.
`CN1CCCC(CN2CCN(Cc3cccc(-c4ccc(-c5nc6ccc(F)cc6[nH]5)cc4)c3)CC2)C1` (centres undefined) showed a pIC50 of 6.85.
`O=C(Nc1ccc(C(F)(F)F)cc1)c1cc(Br)cnc1NCCCn1ccnc1` gave a pIC50 of 6.01.
With `CC1CCC2(CC1)N=C(N)N=C(N)N2OCCCCCCCCO` (centres undefined) the pIC50 was 6.82.
For `Cc1ccc2nc(C)cc(NN=Cc3ccccc3F)c2c1`, the pIC50 was 6.77.
`Cc1cccc2[nH]c(-c3ccc(-c4cccc(CNCC5CCCO5)c4)cc3)nc12` (centres undefined) showed a pIC50 of 6.15.
With `COc1cc(OC)nc(-c2cccc(NC(=O)c3ccc4c(=O)n(CCN5CCCCC5)cnc4c3)c2)n1` the pIC50 was 6.13.
Work on `CCOc1ccc(/C=C/C(=O)Nc2cccc3c2CCN(C)C3)cc1` yielded a pIC50 of 5.95.
With `CCCN1CCCN(Cc2cccc(NC(=O)c3ccc(-c4ccccc4)cc3)c2)CC1` the pIC50 was 5.95.
With `O=C(/C=C/c1ccc(C(F)(F)F)cc1)NCCCCCN1CCCN(C(=O)Nc2ccc(Cl)c(C(F)(F)F)c2)CC1` the pIC50 was 6.70.
`CCOC(=O)c1cn(CC)c2cc(O[C@@H]3CCN(C(=O)OC(C)(C)C)C3)ccc2c1=O` showed a pIC50 of 6.54.
